# Source: PMC10531311, “Anti-Inflammatory Activities of 8-Benzylaminoxanthines Showing High Adenosine A2A and Dual A1/A2A Receptor Affinity” (International Journal of Molecular Sciences, 2023)
# Marks after values point to notes of the source that are not given here.
# Columns and labels:
# formalin test in mice = assay: Formalin test; assay type: in vivo, albino Swiss mice; details: mice
# Procedure: Injection of formalin into the dorsal surface of the hind paw of a mouse produces a biphasic nocifensive behavioral response; i.e., licking, biting, flinching or lifting of the injected paw. The acute (neurogenic) nociceptive phase lasts for the first 5 min and is followed by a period of little activity for the next 10 min. The first phase of the test is directly associated with nociceptor stimulation and the development of neurogenic inflammation. The second (late) phase occurs between 15 and 30 min after formalin injection. The second phase depends on peripheral inflammation and the central sensitization of pain. Since this phase reflects the activation of inflammatory processes, the compounds active in this phase of the experiment also have an anti-inflammatory effect. The tested compounds 19, 22 and 24, were investigated in three doses: 10, 20 and 40 mg/kg bw. ASA (acetylsalicylic acid) was used as a reference compound and administered in doses of 50, 100 and 200 mg/kg. […] The strongest effect in this assay was produced by 24. […] In addition, this anti-nociceptive and anti-inflammatory effect was approximately 13.8 times greater than that observed for the reference compound (ASA). […] ASA also attenuated statistically significant pain responses in the late phases of the formalin test. […] The in vivo experiments were carried out on male albino Swiss mice weighing 18–26 g and male Wistar rats weighing 150–180 g. The animals were housed in constant temperature facilities exposed to a 12:12 light-dark cycle and maintained on a standard pellet diet and tap water given ad libitum. The control and experimental groups consisted of 6–8 animals each. The investigated compounds were intraperitoneally (ip) administered in the form of a suspension in 0.5% methylcellulose. Control animals received the equivalent volume of solvent. All procedures were conducted according to the guidelines of ICLAS (International Council on Laboratory Animals Science) and were approved by the Local Ethics Committee of the Jagiellonian University in Kraków. The mice were pretreated with the test compound or the vehicle and were allowed to acclimate in Plexiglas observation chambers (20 × 30 × 15 cm) for 30 min before the test. Then, 20 μL of a 5% formalin solution was intraplantarly injected into the right hind paw using a 26-gauge needle. Immediately after formalin injection, the animals were individually placed into glass beakers and were observed during the next 30 min. Time (in seconds) spent on licking or biting the injected paw in selected intervals, 0–5, 15–20, 20–25 and 25–30 min, was measured in each experimental group and was an indicator of nociceptive behavior [41]. The ED50 values and their confidence limits were estimated by the method of Litchfield and Wilcoxon.
# human adenosine A2BR = target: T1, human adenosine A2BR (Homo sapiens, UniProt P29275); assay: Radioligand binding at human adenosine A2B receptor vs. [3H]PSB-603; details: for inhibition at 1 µM: CHO cells, read-out: A2BR vs. [³H]PSB-603 % Inhibition ± SEM at 1 µM; for Ki: human recombinant receptor in CHO cells, read-out: A2BR vs. [³H]PSB-603 Ki ± SEM
# T1 construct: expressed in transfected cells; host or cells: CHO cells
# T1 sequence (P29275 1-332): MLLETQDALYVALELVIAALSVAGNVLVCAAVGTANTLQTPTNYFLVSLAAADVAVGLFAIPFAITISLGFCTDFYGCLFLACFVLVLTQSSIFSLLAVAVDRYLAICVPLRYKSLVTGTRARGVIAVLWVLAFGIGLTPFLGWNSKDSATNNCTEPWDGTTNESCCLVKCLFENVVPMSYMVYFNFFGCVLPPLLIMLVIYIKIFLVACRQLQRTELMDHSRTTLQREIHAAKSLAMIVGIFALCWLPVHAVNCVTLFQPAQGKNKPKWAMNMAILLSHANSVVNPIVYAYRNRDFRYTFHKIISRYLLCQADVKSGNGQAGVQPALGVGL
# Procedure: (§1) Affinities for adenosine receptors were evaluated in radioligand binding assays as previously described. Human adenosine receptors were stably expressed in CHO cells. The following radioligands were used: [^3H]2-chloro-N^6-cyclopentyladenosine ([^3H]CCPA) for A1R; [^3H]3-(3-hydroxypropyl)-7-methyl-8-(m-methoxystyryl)-1-propargylxanthine ([^3H]MSX-2) for A2AR; [^3H]8-(4-(4-(4-chlorophenyl)piperazine-1-sulfonyl)phenyl)-1-propylxanthine ([^3H]PSB-603) for A2BR; [^3H]phenyl-8-ethyl-4-methyl-(8R)-4,5,7,8-tetrahydro-1H-imidazo [2,1-i]purine-5-one ([^3H]PSB-11) for A3R. Initially, compounds were tested at a concentration of 1 µM. […] At least three independent experiments were performed. Data were analyzed using GraphPad PRISM version 5.0 or higher (Graph Pad, San Diego, CA, USA). Ki were calculated using the Cheng–Prusoff equation.
# human adenosine A1R = target: T2, human adenosine A1R (Homo sapiens, UniProt P30542); assay: Radioligand binding at human adenosine A1 receptor vs. [3H]CCPA; details: for inhibition at 1 µM: CHO cells, read-out: A1R vs. [³H]CCPA % Inhibition ± SEM at 1 µM; for Ki: human recombinant receptor in CHO cells, read-out: A1R vs. [³H]CCPA Ki ± SEM
# T2 construct: expressed in transfected cells; host or cells: CHO cells
# T2 sequence (P30542 1-326): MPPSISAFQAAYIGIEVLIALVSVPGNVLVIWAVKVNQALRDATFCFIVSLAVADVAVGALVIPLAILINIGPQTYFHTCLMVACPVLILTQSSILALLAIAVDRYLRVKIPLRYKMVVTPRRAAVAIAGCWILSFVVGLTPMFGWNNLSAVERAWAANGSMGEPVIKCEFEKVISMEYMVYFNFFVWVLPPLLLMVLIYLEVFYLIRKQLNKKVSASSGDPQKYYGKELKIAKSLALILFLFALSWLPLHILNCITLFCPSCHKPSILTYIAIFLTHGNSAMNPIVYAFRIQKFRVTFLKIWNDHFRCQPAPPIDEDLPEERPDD
# Procedure: as §1
# human adenosine A2AR = target: T3, human adenosine A2AR (Homo sapiens, UniProt P29274); assay: Radioligand binding at human adenosine A2A receptor vs. [3H]MSX-2; details: for Ki: human recombinant receptor in CHO cells, read-out: A2AR vs. [³H]MSX-2 Ki ± SEM; for A2AR vs. [³H]MSX-2 % Inhibition ± SEM at 1 µM: CHO cells
# T3 construct: expressed in transfected cells; host or cells: CHO cells
# T3 sequence (P29274 whole entry): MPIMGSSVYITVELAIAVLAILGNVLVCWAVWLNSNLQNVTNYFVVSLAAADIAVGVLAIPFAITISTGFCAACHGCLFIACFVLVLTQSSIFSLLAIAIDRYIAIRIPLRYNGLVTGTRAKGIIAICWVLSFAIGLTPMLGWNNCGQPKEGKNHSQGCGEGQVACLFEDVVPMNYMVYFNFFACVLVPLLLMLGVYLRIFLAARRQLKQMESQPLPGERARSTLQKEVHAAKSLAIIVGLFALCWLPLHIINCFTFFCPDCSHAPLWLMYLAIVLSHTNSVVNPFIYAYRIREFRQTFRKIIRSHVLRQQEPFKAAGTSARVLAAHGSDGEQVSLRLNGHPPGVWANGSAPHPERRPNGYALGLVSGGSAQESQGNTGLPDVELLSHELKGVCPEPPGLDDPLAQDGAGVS
# Procedure: as §1
# human adenosine A3R = target: T4, human adenosine A3R (Homo sapiens, UniProt P0DMS8); assay: Radioligand binding at human adenosine A3 receptor vs. [3H]PSB-11; details: for inhibition at 1 µM: CHO cells, read-out: A3R vs. [H³]PSB-11 % Inhibition ± SEM at 1 µM; for Ki: human recombinant receptor in CHO cells, read-out: A3R vs. [H³]PSB-11 Ki ± SEM
# T4 construct: expressed in transfected cells; host or cells: CHO cells
# T4 sequence (P0DMS8 1-318): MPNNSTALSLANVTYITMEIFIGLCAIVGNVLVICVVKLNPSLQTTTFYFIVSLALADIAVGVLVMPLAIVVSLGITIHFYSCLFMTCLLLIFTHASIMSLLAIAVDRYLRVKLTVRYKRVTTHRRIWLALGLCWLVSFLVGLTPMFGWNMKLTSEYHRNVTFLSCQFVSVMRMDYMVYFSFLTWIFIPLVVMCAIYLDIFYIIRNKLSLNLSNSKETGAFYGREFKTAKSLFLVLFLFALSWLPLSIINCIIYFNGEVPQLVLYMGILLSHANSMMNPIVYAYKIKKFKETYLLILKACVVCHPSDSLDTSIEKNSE
# Procedure: as §1
SMILES,inhibition at 1 µM (human adenosine A2BR),Ki (human adenosine A2BR),melting point,inhibition at 1 µM (human adenosine A1R),Ki (human adenosine A1R),Ki (human adenosine A2AR),inhibition at 1 µM (human adenosine A3R),Ki (human adenosine A3R),A2AR vs. [³H]MSX-2 % Inhibition ± SEM at 1 µM (human adenosine A2AR),other results
"CC(=O)Oc1ccccc1C(=O)O [ASA, acetylsalicylic acid, reference compound]",–,–,–,–,–,–,–,–,–,"ED50 (formalin test in mice; Mus musculus, II (late) phase, method of Litchfield and Wilcoxon, read-out: calculated ED50 in the formalin test): 126 mg/kg; Early Phase Inhibition (%) (formalin test in mice; 50 mg/kg): 12.4%; Late Phase Inhibition (%) (formalin test in mice; 50 mg/kg): 10.0%; Licking of the Hind Paw Early Phase (0–5 min) Mean ± SEM (formalin test in mice; 50 mg/kg): 59.8 ± 6.3 s; Licking of the Hind Paw Late Phase (15–30 min) Mean ± SEM (formalin test in mice; 50 mg/kg): 108.7 ± 13.8 s; Early Phase Inhibition (%) (formalin test in mice; 100 mg/kg): 14.3%; Late Phase Inhibition (%) (formalin test in mice; 100 mg/kg): 50.0%; Licking of the Hind Paw Early Phase (0–5 min) Mean ± SEM (formalin test in mice; 100 mg/kg): 58.5 ± 4.5 s; Licking of the Hind Paw Late Phase (15–30 min) Mean ± SEM (formalin test in mice; 100 mg/kg): 60.3 ± 9.5 ^c sec; Late Phase Inhibition (%) (formalin test in mice; 200 mg/kg): 66.3%; Licking of the Hind Paw Early Phase (0–5 min) Mean ± SEM (formalin test in mice; 200 mg/kg): 62.0 ± 8.6 s; Licking of the Hind Paw Late Phase (15–30 min) Mean ± SEM (formalin test in mice; 200 mg/kg): 40.6 ± 14.0 ^c sec"
"CCCCn1c(=O)c2c(nc(NCc3ccccc3Cl)n2C)n(C)c1=O [compound 6, 1-Butyl-8-((2-chlorobenzyl)amino)-3,7-dimethyl-3,7-dihydro-1H-purine-2,6-dione]",32%,> 1000 nM,181 to 183 °C,21%,> 1000 nM,318 ± 141 nM,11%,> 1000 nM,–,–
"CCCCCn1c(=O)c2c(nc(NCc3ccccc3Cl)n2C)n(C)c1=O [compound 7, 8-((2-Chlorobenzyl)amino)-3,7-dimethyl-1-pentyl-3,7-dihydro-1H-purine-2,6-dione]",41%,> 1000 nM,177 to 180 °C,35%,> 1000 nM,> 1000 nM,13%,> 1000 nM,38 ± 4%,–
"CCCCCCn1c(=O)c2c(nc(NCc3ccccc3Cl)n2C)n(C)c1=O [compound 8, 8-((2-Chlorobenzyl)amino)-1-hexyl-3,7-dimethyl-3,7-dihydro-1H-purine-2,6-dione]",13%,> 1000 nM,191 to 194 °C,17%,> 1000 nM,> 1000 nM,31%,> 1000 nM,9 ± 8%,–
Cn1c(NCc2ccccc2Cl)nc2c1c(=O)n(Cc1ccccc1)c(=O)n2C [compound 9],9%,> 1000 nM,205 to 208 °C,23%,> 1000 nM,323 ± 150 nM,24%,> 1000 nM,–,–
"Cn1c(NCc2ccccc2Cl)nc2c1c(=O)n(Cc1ccc(Cl)cc1)c(=O)n2C [compound 10, 1-(4-Chlorobenzyl)-8-((2-chlorobenzyl)amino)-3,7-dimethyl-3,7-dihydro-1H-purine-2,6-dione]",14%,> 1000 nM,228 to 230 °C,12%,> 1000 nM,> 1000 nM,31%,> 1000 nM,–,–
"Cn1c(NCc2ccccc2Cl)nc2c1c(=O)n(Cc1ccc(Cl)c(Cl)c1)c(=O)n2C [compound 11, 8-((2-Chlorobenzyl)amino)-1-(3,4-dichlorobenzyl)-3,7-dimethyl-3,7-dihydro-1H-purine-2,6-dione]",4%,> 1000 nM,198 to 203 °C,10%,> 1000 nM,> 1000 nM,40%,> 1000 nM,23 ± 7%,–
"C#CCn1c(=O)c2c(nc(NCc3ccccc3Cl)n2C)n(C2CC2)c1=O [compound 27, 8-((2-Chlorobenzyl)amino)-3-cyclopropyl-7-methyl-1-(prop-2-yn-1-yl)-3,7-dihydro-1H-purine-2,6-dione]",9%,> 1000 nM,172 to 173 °C,–,247 ± 43 nM,311 ± 167 nM,16%,> 1000 nM,–,–
"C#CCn1c(=O)c2c(nc(NCc3ccccc3F)n2C)n(C2CC2)c1=O [compound 28, 3-Cyclopropyl-8-((2-fluorobenzyl)amino)-7-methyl-1-(prop-2-yn-1-yl)-3,7-dihydro-1H-purine-2,6-dione]",14%,> 1000 nM,190 to 192 °C,–,166 ± 65 nM,386 ± 61 nM,-2%,> 1000 nM,–,–
"C#CCn1c(=O)c2c(nc(NCc3c(F)cccc3Cl)n2C)n(C2CC2)c1=O [compound 29, 8-((2-Chloro-6-fluorobenzyl)amino)-3-cyclopropyl-7-methyl-1-(prop-2-yn-1-yl)-3,7-dihydro-1H-purine-2,6-dione]",16%,> 1000 nM,186 to 187 °C,–,78 ± 9 nM,204 ± 38 nM,16%,> 1000 nM,–,–
